In ChEMBL document CHEMBL3797106, “Potent and Selective Agonists of Sphingosine 1-Phosphate 1 (S1P1): Discovery and SAR of a Novel Isoxazole Based Series” (J Med Chem, 2016):

Tests used:
[1] = Oral bioavailability in rat at 5 mg/kg; assay type: ADME, organism-based; details: in vivo
Canis familiaris [2] = test: Ratio of Cmax to Cmin in dog at 1 mg/kg, po; assay type: ADME, organism-based, Canis lupus familiaris; details: in vivo
Rattus norvegicus [3] = test: Reduction of blood lymphocyte level in Lewis rat at 0.3 mg/kg, po measured at 24 hrs by hematology analyzer relative to vehicle-treated control; assay type: functional; design: scale not given: the % may be the effect or the level left
[4] = Tmax in dog at 1 mg/kg, po; assay type: ADME, organism-based, Canis lupus familiaris; details: in vivo
[5] = Lipophilicity, log D of the compound at pH 6.5; assay type: physicochemical; details: buffer
Rattus norvegicus [6] = test: Reduction of blood lymphocyte level in po dosed Lewis rat measured at 4 to 24 hrs by hematology analyzer; assay type: functional, organism-based
Rattus norvegicus [7] = test: Reduction of blood lymphocyte level in Lewis rat at 0.03 mg/kg, po measured at 24 hrs by hematology analyzer relative to vehicle-treated control; assay type: functional; design: scale not given: the % may be the effect or the level left
[8] = Oral bioavailability in dog at 1 mg/kg; assay type: ADME, organism-based, Canis lupus familiaris; details: in vivo
Cynomolgus monkey [9] = test: Clearance in cynomolgus monkey at 2 mg/kg, iv relative to hepatic blood flow; assay type: ADME, organism-based, Macaca fascicularis; details: in vivo
[10] = Clearance in rat at 2 mg/kg, iv; assay type: ADME, organism-based; details: in vivo
[11] = molecular target: T1, Sphingosine 1-phosphate receptor 1 (Homo sapiens, UniProt P21453); test: Induction of internalization of C-terminal GFP-fused human S1P1 receptor expressed in CHO […] assessed as remaining receptor level in cell membrane at 4.6 nM preincubated for 50 mins followed by compound washout measured at 16 hrs relative to control; assay type: cell-based
T1 sequence (P21453 whole entry, the tested form may be a part): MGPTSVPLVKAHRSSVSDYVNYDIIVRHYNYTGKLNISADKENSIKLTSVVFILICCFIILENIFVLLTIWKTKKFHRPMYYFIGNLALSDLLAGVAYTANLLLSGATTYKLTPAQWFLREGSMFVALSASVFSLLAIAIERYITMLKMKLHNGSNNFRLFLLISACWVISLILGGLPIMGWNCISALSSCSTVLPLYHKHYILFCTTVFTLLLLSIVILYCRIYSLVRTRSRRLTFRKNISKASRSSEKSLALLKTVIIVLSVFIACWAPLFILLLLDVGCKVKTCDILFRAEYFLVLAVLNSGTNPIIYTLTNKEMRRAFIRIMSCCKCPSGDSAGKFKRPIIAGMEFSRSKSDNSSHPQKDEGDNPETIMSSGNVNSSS

Rattus norvegicus [12] = test: Antiarthritic activity in po dosed complete Freund's adjuvant-induced Lewis rat arthritis model assessed as suppression of paw swelling administered as qd for 21 days started from day of immunization measured 3 times per week of compound dosing by water displacement plethysmometry; assay type: functional; details: 504 h
[13] = molecular target: Sphingosine 1-phosphate receptor 3 (Homo sapiens, UniProt Q99500); test: Agonist activity at human S1P3 receptor expressed in EDG3-Ga15-bla HEK293T cell membranes after 45 mins by [35S]-GTPgammaS binding assay; assay type: functional, HEK-293T
Sphingosine 1-phosphate receptor 3, sequence (Q99500 whole entry): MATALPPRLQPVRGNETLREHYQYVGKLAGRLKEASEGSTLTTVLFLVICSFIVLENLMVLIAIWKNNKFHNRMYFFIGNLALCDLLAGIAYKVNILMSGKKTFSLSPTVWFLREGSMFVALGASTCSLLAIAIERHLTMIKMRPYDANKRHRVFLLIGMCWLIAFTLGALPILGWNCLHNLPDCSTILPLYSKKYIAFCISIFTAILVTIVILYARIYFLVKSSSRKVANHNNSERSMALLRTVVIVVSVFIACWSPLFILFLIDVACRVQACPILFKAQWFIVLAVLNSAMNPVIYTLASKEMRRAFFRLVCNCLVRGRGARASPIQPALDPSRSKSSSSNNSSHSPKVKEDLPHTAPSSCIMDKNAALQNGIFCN

[14] = Half life in cynomolgus monkey at 2 mg/kg, iv; assay type: ADME, organism-based, Macaca fascicularis; details: in vivo
Cynomolgus monkey [15] = test: Ratio of Cmax to Cmin in cynomolgus monkey at 5 mg/kg, po; assay type: ADME, organism-based, Macaca fascicularis; details: in vivo
Rattus norvegicus [16] = test: Antiarthritic activity in complete Freund's adjuvant-induced Lewis rat arthritis model assessed as suppression of paw swelling at 0.1 mg/kg, po qd for 21 days started from day of immunization measured 3 times per week of compound dosing by water displacement plethysmometry relative to control; assay type: functional
[17] = Plasma protein binding in dog; assay type: ADME, cell-free, Canis lupus familiaris; details: read-out: PPB
Mus musculus [18] = test: Inhibition of demyelination in spinal cord of po dosed C57BL/6 mouse experimental autoimmune encephalomyelitis model of multiple sclerosis administered as qd for 24 days started from day of immunization; assay type: functional, organism-based
Plasma [19] = test: Ratio drug level in Lewis rat plasma at 1 mg/kg, po at 4 hrs to drug level in Lewis rat plasma at 1 mg/kg, po at 24 hrs; assay type: ADME, organism-based; details: in vivo
Salmonella typhi = test: Mutagenicity in Salmonella typhi by Ames test; assay type: toxicity, organism-based; details: salmonella enterica subsp. enterica […]
Plasma [20] = test: Ratio drug level in Lewis rat plasma at 0.3 mg/kg, po at 4 hrs to drug level in Lewis rat plasma at 0.3 mg/kg, po at 24 hrs; assay type: ADME, organism-based; details: in vivo
[21] = Plasma protein binding in human; assay type: ADME, cell-free; details: read-out: PPB (converted)
[22] = Plasma concentration in Lewis rat at 0.03 mg/kg, po measured at 4 hrs; assay type: ADME, organism-based
[23] = Mean residence time in mouse at 2 mg/kg, iv; assay type: ADME, organism-based; details: in vivo
Mus musculus [24] = test: Reduction in overall disease severity in po dosed C57BL/6 mouse experimental autoimmune encephalomyelitis model of multiple sclerosis administered as qd for 24 days started from day of immunization measured 3 times per week of compound dosing; assay type: functional, organism-based
Mus musculus [25] = test: Reduction in clinical score in po dosed C57BL/6 mouse experimental autoimmune encephalomyelitis model of multiple sclerosis administered as qd for 24 days started from day of immunization measured 3 times per week of compound dosing; assay type: functional; details: C57BL/6, po, 576 h
[26] = Clearance in cynomolgus monkey at 2 mg/kg, iv; assay type: ADME, organism-based, Macaca fascicularis; details: in vivo
Homo sapiens [27] = species: Homo sapiens; test: Inhibition of sodium channel (unknown origin) at 10 uM by patch clamp method relative to control
Cytochrome P450 2C19 = Cytochrome P450 2C19 (Homo sapiens, UniProt P33261); test: Inhibition of CYP2C19 (unknown origin); assay type: ADME
Cytochrome P450 2C19, sequence (P33261 whole entry): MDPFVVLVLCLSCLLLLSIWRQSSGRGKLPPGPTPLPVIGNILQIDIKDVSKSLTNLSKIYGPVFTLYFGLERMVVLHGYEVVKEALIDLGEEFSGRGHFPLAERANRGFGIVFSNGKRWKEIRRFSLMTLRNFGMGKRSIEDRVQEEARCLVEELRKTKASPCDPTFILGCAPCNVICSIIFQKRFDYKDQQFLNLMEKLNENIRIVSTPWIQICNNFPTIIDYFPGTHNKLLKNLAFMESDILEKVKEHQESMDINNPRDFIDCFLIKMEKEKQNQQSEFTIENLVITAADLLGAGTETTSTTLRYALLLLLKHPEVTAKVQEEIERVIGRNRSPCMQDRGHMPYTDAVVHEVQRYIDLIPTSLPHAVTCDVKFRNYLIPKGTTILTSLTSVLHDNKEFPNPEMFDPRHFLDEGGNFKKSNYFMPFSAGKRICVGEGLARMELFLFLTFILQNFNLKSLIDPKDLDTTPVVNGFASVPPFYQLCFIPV

[28] = molecular target: Voltage-gated inwardly rectifying potassium channel KCNH2 (Homo sapiens, UniProt Q12809); test: Inhibition of human ERG by patch clamp method
Voltage-gated inwardly rectifying potassium channel KCNH2, sequence (Q12809 whole entry): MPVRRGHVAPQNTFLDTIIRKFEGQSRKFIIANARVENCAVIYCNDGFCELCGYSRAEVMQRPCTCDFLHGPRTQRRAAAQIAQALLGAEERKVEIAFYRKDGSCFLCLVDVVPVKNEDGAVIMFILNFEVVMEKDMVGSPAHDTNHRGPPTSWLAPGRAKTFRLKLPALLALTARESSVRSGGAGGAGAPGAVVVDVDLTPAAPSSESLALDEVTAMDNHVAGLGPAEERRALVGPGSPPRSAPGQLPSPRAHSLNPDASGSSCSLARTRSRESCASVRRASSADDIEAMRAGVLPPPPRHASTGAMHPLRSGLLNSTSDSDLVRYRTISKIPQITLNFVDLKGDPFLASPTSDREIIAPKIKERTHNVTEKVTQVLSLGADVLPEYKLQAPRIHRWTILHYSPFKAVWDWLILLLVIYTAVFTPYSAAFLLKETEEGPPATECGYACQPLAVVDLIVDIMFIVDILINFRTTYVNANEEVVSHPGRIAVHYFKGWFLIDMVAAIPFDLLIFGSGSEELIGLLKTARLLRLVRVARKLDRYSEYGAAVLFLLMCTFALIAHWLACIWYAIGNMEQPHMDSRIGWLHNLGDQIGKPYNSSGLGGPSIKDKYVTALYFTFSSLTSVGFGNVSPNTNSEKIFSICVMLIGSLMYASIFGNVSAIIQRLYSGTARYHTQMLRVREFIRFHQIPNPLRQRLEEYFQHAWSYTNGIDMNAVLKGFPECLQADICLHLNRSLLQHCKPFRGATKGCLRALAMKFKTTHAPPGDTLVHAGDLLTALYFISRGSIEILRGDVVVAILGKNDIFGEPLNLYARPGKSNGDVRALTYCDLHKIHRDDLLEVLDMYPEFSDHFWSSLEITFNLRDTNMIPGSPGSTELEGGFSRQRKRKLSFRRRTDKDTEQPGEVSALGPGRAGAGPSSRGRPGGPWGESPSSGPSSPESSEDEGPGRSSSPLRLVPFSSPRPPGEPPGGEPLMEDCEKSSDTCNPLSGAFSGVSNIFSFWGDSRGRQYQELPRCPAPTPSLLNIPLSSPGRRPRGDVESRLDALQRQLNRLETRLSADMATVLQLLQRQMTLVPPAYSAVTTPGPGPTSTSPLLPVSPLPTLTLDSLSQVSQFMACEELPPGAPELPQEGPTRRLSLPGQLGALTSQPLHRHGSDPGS

Homo sapiens [29] = species: Homo sapiens; test: Selectivity ratio of EC50 for human S1P3 receptor to EC50 for human S1P1 receptor
[30] = Tmax in rat at 5 mg/kg, po; assay type: ADME, organism-based; details: in vivo
Mus musculus [31] = test: Inhibition of inflammation in spinal cord of po dosed C57BL/6 mouse experimental autoimmune encephalomyelitis model of multiple sclerosis administered as qd for 24 days started from day of immunization; assay type: functional, organism-based
[32] = Volume of distribution at steady state in mouse at 2 mg/kg, iv; assay type: ADME, organism-based; details: in vivo, read-out: Vdss
Rattus norvegicus [33] = test: Reduction of blood lymphocyte level in Lewis rat at 1 mg/kg, po measured at 24 hrs by hematology analyzer relative to vehicle-treated control; assay type: functional; design: scale not given: the % may be the effect or the level left
[34] = Mean residence time in rat at 2 mg/kg, iv; assay type: ADME, organism-based; details: in vivo
[35] = Volume of distribution at steady state in rat at 2 mg/kg, iv; assay type: ADME, organism-based; details: in vivo, read-out: Vdss
Rattus norvegicus [36] = test: Reduction of blood lymphocyte level in Lewis rat at 0.3 mg/kg, po measured at 4 hrs by hematology analyzer relative to vehicle-treated control; assay type: functional; design: scale not given: the % may be the effect or the level left
[37] = molecular target: T1, Sphingosine 1-phosphate receptor 1; test: Induction of internalization of C-terminal GFP-fused human S1P1 receptor expressed in CHO […] after 50 mins; assay type: cell-based
Rattus norvegicus [38] = test: Reduction of blood lymphocyte level in Lewis rat at 0.03 mg/kg, po measured at 4 hrs by hematology analyzer relative to vehicle-treated control; assay type: functional; design: scale not given: the % may be the effect or the level left
[39] = molecular target: T1, Sphingosine 1-phosphate receptor 1; test: Agonist activity at human S1P1 receptor expressed in CHO cell membranes after 45 mins by [35S]-GTPgammaS binding assay; assay type: functional
[40] = molecular target: T1, Sphingosine 1-phosphate receptor 1; test: Induction of internalization of C-terminal GFP-fused human S1P1 receptor expressed in CHO […] assessed as remaining receptor level in cell membrane at 4.6 nM preincubated for 50 mins followed by compound washout measured at 4 hrs relative to control; assay type: cell-based
[41] = Clearance in dog at 1 mg/kg, iv; assay type: ADME, organism-based, Canis lupus familiaris; details: in vivo
Canis familiaris [42] = test: Clearance in dog at 1 mg/kg, iv relative to hepatic blood flow; assay type: ADME, organism-based, Canis lupus familiaris, Liver; details: in vivo
[43] = Tmax in mouse at 10 mg/kg, po; assay type: ADME, organism-based; details: in vivo
[44] = Plasma concentration in Lewis rat at 0.03 mg/kg, po measured at 24 hrs; assay type: ADME, organism-based
Homo sapiens [45] = species: Homo sapiens; test: Inhibition of calcium channel (unknown origin) at 10 uM by patch clamp method relative to control
[46] = Permeability across apical to basolateral side in human Caco2 cells; assay type: ADME, cell-based; details: Caco-2, read-out: permeability

Compound: O=C(O)C1CN(Cc2ccc(-c3noc(-c4onc(-c5ccccc5)c4C(F)(F)F)n3)cc2)C1
- bioavailability [1]: 52%
- Ratio (Canis familiaris [2]): 9
- Activity (Rattus norvegicus [3]): 73%
- Tmax [4]: 8.9 h
- logD [5]: 2.68
- Activity (Rattus norvegicus [6]): Dose-dependent effect
- Activity (Rattus norvegicus [7]): 45%
- bioavailability [8]: 45%
- CL (Cynomolgus monkey [9]): 12%
- clearance [10]: 1.7 mL/min/kg
- Activity [11]: 40%
- ED50 (Rattus norvegicus [12]): 0.05 mg/kg
- EC50 [13]: 1600 nM
- half-life [14]: 3 h
- Ratio (Cynomolgus monkey [15]): 37
- Activity (Rattus norvegicus [16]): >50%
- fraction unbound [17]: 0.01
- inhibition (Mus musculus [18]): Dose-dependent effect
- Ratio (Plasma [19]): 3
- Activity (Salmonella typhi): Non-toxic
- Ratio (Plasma [20]): 7
- fraction unbound [21]: 0.003
- concentration at 4 h [22]: 20 nM
- MRT [23]: 14 h
- Activity (Mus musculus [24]): Dose-dependent effect
- ED50 (Mus musculus [25]): 0.02 mg/kg
- clearance [26]: 5.2 mL/min/kg
- inhibition (Homo sapiens [27]): < 5%
- IC50 (Cytochrome P450 2C19): > 40000 nM
- IC50 [28]: 18000 nM
- Ratio EC50 (Homo sapiens [29]): 3400
- Tmax [30]: 3.3 h
- inhibition (Mus musculus [31]): Dose-dependent effect
- Vd [32]: 0.2 L/kg
- Activity (Rattus norvegicus [33]): 91%
- MRT [34]: 14 h
- Vd [35]: 1.4 L/kg
- Activity (Rattus norvegicus [36]): 82%
- EC50 [37]: 0.27 nM
- Activity (Rattus norvegicus [38]): 75%
- EC50 [39]: 0.47 nM
- Activity [40]: 20%
- clearance [41]: 1.6 mL/min/kg
- CL (Canis familiaris [42]): 5.2%
- Tmax [43]: 3 h
- concentration at 24 h [44]: 4 nM
- inhibition (Homo sapiens [45]): 12%
- Papp A→B [46]: 10.4 ×10⁻⁶ cm/s
